Reference: patent US20230109833A1, “METABOLICALLY STABLE N-ACYLAMINOOXADIAZOLES USEFUL AS ANTIBACTERIAL AGENTS” (MICROBIOTIX, INC., priority 2017, published 2023)

Legend:
Type in all cases: binding
Adenosine A1 = target: T1, Adenosine A1 (Homo sapiens, UniProt P30542); conditions: 10 μM compound, Hit Profile Panel
T1 sequence (P30542 1-326): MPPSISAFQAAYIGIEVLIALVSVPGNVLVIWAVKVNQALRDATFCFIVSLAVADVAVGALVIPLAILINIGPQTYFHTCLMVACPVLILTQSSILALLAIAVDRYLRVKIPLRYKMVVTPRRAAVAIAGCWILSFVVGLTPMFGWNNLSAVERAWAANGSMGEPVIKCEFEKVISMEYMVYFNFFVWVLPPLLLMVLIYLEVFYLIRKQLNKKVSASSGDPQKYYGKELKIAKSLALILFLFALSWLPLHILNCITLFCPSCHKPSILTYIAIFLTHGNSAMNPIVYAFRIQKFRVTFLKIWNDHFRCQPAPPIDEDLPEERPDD

Adenosine A2A = Adenosine A2A (Homo sapiens, UniProt P29274); conditions: 10 μM compound, Hit Profile Panel
Chain of Adenosine A2A (P29274 whole entry): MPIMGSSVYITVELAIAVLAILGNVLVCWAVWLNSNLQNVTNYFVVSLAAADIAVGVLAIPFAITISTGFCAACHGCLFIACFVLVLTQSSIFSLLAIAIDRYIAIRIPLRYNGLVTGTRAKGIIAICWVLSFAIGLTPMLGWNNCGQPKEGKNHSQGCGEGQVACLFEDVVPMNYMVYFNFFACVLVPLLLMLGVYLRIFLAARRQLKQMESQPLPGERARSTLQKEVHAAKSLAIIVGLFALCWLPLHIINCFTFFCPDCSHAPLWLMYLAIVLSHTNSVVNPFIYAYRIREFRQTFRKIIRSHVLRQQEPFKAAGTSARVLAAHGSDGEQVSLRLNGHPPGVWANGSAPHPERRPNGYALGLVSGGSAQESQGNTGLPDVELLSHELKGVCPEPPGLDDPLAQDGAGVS

Adrenergic α1A = target: T2, Adrenergic α1A (Rattus norvegicus, UniProt P43140); conditions: 10 μM compound, Hit Profile Panel
T2 sequence (P43140 1-466): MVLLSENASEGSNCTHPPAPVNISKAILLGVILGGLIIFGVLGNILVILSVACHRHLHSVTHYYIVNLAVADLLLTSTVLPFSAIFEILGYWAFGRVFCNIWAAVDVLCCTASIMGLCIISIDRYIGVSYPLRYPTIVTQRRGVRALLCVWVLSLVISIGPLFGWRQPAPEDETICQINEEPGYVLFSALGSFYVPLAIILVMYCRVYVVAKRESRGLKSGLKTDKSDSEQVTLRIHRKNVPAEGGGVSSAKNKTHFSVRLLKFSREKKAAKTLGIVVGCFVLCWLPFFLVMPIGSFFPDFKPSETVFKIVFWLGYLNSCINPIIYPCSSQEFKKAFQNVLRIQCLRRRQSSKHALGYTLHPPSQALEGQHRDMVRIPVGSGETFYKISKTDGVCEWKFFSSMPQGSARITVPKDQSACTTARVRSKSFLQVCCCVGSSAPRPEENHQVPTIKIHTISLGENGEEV

Adrenergic α1B = target: T3, Adrenergic α1B (Rattus norvegicus, UniProt P15823); conditions: 10 μM compound, Hit Profile Panel
T3 sequence (P15823 1-515): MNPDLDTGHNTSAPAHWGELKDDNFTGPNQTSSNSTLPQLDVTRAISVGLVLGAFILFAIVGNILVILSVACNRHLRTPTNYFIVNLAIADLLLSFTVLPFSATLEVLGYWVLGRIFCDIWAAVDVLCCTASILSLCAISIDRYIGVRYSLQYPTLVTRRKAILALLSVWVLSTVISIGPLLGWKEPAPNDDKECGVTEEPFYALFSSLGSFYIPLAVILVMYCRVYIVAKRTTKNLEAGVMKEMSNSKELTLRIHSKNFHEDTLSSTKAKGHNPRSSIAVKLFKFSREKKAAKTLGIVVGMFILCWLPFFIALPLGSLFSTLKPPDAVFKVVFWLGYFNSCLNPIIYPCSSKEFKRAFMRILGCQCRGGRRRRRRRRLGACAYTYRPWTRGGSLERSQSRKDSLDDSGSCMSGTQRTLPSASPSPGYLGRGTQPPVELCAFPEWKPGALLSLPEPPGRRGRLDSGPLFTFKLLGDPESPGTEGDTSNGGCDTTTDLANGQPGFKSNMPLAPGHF

Adrenergic β2 = Adrenergic β2 (Homo sapiens, UniProt P07550); conditions: 10 μM compound, Hit Profile Panel
Chain of Adrenergic β2 (P07550 whole entry): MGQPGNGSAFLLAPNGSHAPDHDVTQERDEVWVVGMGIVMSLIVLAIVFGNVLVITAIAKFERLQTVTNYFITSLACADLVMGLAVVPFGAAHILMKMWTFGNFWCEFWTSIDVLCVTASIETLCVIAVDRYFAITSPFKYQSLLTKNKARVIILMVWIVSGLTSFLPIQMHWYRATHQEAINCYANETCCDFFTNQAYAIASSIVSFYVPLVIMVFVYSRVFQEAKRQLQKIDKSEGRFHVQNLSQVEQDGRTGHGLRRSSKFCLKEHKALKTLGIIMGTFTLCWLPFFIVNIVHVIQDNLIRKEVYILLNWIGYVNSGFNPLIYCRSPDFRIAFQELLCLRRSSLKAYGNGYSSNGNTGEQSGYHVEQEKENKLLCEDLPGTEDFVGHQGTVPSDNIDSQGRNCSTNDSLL

[1] = test system: Calcium Channel L-type, Dihydropyridine; conditions: rat; 10 μM compound; Hit Profile Panel
Dopamine D1 = Dopamine D1 (Homo sapiens, UniProt P21728); conditions: 10 μM compound, Hit Profile Panel
Chain of Dopamine D1 (P21728 whole entry): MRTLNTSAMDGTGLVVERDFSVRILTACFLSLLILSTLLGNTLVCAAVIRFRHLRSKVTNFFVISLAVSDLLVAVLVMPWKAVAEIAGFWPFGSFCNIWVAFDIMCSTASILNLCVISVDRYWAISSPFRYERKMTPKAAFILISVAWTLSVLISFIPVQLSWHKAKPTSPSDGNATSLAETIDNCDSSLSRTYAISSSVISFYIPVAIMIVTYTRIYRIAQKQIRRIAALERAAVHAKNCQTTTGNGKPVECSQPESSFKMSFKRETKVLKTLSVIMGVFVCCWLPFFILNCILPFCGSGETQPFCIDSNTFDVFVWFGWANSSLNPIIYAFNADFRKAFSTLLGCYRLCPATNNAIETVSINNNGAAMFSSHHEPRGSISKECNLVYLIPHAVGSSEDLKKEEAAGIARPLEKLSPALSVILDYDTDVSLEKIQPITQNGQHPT

Dopamine D2s = Dopamine D2s (Homo sapiens, UniProt P14416); conditions: 10 μM compound, Hit Profile Panel
Chain of Dopamine D2s (P14416 1-414 isoform P14416-2): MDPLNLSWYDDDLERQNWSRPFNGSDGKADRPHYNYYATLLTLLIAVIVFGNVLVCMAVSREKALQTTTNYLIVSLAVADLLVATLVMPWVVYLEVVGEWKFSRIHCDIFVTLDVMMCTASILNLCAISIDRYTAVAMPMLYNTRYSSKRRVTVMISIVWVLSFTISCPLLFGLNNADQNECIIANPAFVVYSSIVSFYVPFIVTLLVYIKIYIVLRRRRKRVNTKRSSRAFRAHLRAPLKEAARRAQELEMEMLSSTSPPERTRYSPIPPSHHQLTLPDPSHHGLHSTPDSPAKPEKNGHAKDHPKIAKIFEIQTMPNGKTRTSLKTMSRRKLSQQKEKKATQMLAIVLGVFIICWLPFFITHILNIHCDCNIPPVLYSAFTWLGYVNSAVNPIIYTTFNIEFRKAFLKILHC

[2] = test system: GABAA, Flunitrazepam, Central; conditions: rat; 10 μM compound; Hit Profile Panel
GABAA, Muscimol, Central = conditions: rat; 10 μM compound; Hit Profile Panel
[3] = test system: Glutamate, NMDA, Phencyclidine; conditions: rat; 10 μM compound; Hit Profile Panel
Histamine, H1 = Histamine, H1 (Homo sapiens, UniProt P35367); conditions: 10 μM compound, Hit Profile Panel
Chain of Histamine, H1 (P35367 whole entry): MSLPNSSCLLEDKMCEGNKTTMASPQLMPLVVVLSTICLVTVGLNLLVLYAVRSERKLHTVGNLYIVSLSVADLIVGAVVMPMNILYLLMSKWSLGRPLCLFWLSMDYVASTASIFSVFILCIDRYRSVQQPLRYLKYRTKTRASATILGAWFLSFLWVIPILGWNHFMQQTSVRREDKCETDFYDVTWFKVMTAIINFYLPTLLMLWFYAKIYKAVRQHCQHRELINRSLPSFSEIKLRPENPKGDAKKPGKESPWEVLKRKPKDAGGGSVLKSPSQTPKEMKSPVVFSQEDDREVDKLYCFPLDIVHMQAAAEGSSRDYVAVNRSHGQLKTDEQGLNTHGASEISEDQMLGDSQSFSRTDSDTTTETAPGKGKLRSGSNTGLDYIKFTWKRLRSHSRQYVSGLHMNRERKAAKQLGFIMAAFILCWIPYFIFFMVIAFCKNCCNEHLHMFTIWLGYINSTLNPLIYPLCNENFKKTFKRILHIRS

Imidazoline I2, Central = conditions: rat; 10 μM compound; Hit Profile Panel
Muscarinic M3 = Muscarinic M3 (Homo sapiens, UniProt P20309); conditions: 10 μM compound, Hit Profile Panel
Chain of Muscarinic M3 (P20309 whole entry): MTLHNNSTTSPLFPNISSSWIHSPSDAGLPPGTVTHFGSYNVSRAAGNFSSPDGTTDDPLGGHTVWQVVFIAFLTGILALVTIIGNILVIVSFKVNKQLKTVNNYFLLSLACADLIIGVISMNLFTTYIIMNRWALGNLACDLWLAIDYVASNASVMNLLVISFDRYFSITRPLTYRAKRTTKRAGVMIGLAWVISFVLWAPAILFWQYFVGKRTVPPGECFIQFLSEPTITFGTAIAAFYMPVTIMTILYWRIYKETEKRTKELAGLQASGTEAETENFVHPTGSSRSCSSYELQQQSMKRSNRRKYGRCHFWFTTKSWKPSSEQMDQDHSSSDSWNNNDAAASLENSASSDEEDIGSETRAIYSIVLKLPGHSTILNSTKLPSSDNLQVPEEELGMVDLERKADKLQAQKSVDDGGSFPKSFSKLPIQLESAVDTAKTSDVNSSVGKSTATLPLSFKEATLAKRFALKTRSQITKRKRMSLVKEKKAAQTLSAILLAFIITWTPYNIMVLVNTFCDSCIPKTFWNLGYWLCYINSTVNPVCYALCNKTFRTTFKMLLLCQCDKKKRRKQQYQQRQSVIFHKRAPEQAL

[4] = target: Nicotinic Acetylcholine a1, Bungarotoxin (Homo sapiens, UniProt P02708+P07510+Q07001); conditions: for inhibition at 10 µM: read-out: % Inhibition, Nicotinic Acetylcholine a1, Bungarotoxin
Opiate μ(OP3, MOP) = Opiate μ(OP3, MOP) (Homo sapiens, UniProt P35372); conditions: 10 μM compound, Hit Profile Panel
Chain of Opiate μ(OP3, MOP) (P35372 whole entry): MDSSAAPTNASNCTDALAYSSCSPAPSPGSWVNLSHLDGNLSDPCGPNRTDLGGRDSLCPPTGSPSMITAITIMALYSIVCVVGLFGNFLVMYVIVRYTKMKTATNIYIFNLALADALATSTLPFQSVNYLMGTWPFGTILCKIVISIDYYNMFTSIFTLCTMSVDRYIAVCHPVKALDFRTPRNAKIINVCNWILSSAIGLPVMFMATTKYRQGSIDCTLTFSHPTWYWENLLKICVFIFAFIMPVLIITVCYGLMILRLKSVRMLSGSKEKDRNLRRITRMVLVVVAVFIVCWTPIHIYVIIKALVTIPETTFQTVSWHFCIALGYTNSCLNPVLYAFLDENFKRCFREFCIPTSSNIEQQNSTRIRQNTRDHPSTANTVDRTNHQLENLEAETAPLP

Phorbol Ester = conditions: mouse; 10 μM compound; Hit Profile Panel
[5] = target: Seritonin (5-Hydroxytryptamine) 5-HT2B (Homo sapiens, UniProt P41595); conditions: 10 μM compound, Hit Profile Panel
Chain of Seritonin (5-Hydroxytryptamine) 5-HT2B (P41595 whole entry): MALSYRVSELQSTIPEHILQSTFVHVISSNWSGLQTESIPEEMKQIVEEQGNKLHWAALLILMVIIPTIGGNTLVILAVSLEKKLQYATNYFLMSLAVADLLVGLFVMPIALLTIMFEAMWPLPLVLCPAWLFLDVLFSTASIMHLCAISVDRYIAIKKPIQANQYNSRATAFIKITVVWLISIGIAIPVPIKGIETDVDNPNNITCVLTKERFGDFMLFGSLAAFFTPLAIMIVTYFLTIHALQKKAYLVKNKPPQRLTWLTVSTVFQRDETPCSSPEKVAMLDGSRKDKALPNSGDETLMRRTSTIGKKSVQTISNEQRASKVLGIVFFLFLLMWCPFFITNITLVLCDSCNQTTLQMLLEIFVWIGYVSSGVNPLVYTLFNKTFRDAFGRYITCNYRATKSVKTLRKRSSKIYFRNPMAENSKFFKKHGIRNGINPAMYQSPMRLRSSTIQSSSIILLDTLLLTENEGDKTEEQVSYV

Sigma σ1 = Sigma σ1 (Homo sapiens, UniProt Q99720); conditions: 10 μM compound, Hit Profile Panel
Chain of Sigma σ1 (Q99720 whole entry): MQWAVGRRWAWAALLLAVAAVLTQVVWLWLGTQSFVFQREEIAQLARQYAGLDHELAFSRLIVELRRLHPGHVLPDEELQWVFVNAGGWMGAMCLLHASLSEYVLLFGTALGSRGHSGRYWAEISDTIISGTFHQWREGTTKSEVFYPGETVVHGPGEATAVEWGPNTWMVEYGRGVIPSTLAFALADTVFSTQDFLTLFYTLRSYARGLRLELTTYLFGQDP

Sodium Channel, Site 2 = conditions: rat; 10 μM compound; Hit Profile Panel
[6] = target: Transporter, Norepinephrine (NET) (Homo sapiens, UniProt P23975); conditions: 10 μM compound, Hit Profile Panel
Chain of Transporter, Norepinephrine (NET) (P23975 whole entry): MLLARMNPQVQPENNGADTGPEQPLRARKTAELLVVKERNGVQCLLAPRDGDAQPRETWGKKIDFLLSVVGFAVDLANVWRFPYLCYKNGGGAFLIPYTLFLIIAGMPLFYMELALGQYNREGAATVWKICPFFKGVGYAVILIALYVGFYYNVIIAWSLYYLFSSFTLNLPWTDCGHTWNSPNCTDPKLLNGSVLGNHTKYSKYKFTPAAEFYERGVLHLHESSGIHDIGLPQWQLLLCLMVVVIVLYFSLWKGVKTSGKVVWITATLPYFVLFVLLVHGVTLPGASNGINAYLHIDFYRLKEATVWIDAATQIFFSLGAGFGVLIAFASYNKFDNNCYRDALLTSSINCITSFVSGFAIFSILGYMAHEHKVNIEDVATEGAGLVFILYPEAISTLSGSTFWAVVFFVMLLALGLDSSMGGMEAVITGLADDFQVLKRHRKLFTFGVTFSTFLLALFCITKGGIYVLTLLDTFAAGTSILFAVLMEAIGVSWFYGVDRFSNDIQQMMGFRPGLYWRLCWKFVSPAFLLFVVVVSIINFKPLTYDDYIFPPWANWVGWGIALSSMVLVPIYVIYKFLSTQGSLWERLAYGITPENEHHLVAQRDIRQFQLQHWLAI

SMILES | inhibition at 10 µM (Adenosine A1) | inhibition at 10 µM (Adenosine A2A) | inhibition at 10 µM (Adrenergic α1A) | inhibition at 10 µM (Adrenergic α1B) | inhibition at 10 µM (Adrenergic β2) | % Inhibition, Calcium Channel L-type, Dihydropyridine [1] | inhibition at 10 µM (Dopamine D1) | inhibition at 10 µM (Dopamine D2s) | % Inhibition, GABAA, Flunitrazepam, Central [2] | % Inhibition, GABAA, Muscimol, Central (GABAA, Muscimol, Central) | % Inhibition, Glutamate, NMDA, Phencyclidine [3] | inhibition at 10 µM (Histamine, H1) | % Inhibition, Imidazoline I2, Central (Imidazoline I2, Central) | inhibition at 10 µM (Muscarinic M3) | inhibition at 10 µM [4] | inhibition at 10 µM (Opiate μ(OP3, MOP)) | % Inhibition, Phorbol Ester (Phorbol Ester) | inhibition at 10 µM [5] | inhibition at 10 µM (Sigma σ1) | % Inhibition, Sodium Channel, Site 2 (Sodium Channel, Site 2) | other results
O=C(Nc1nnc(-c2ccc(F)cc2)o1)c1ccc(OC2CCCCC2)cc1 [compound 4292] | 8% | 11% | 9% | 3% | 6% | 23% | 17% | 1% | −1% | −4% | 0% | -8% | 10% | 0% | -4% | 4% | 2% | -7% | 10% | −2% | inhibition at 10 µM [6]: 77%
O=C(Nc1nnc(-c2ccc(F)cc2)o1)N1CC=C(C(F)(F)F)CC1 [compound 4347] | -4% | 3% | -21% | 7% | 8% | 16% | 5% | -2% | 22% | 4% | 5% | 22% | −5% | 2% | 2% | -14% | 7% | -1% | -2% | −5% | inhibition at 10 µM [6]: 32%
O=C(Nc1nnc(-c2ccc(F)cc2)o1)N1CCc2ccccc2C1 [MBX-4132] | – | – | – | – | – | 15% | – | – | 13% | 1% | −3% | – | 33% | – | – | – | 4% | – | – | 4% | % Inhibition, Adenosine A1 (Adenosine A1): 48%; % Inhibition, Adenosine A2A (Adenosine A2A): 43%; % Inhibition, Adrenergic α1A (Adrenergic α1A): 24%; % Inhibition, Adrenergic α1B (Adrenergic α1B): 21%; % Inhibition, Adrenergic β2 (Adrenergic β2): 36%; % Inhibition, Dopamine D1 (Dopamine D1): −8%; % Inhibition, Dopamine D2s (Dopamine D2s): 25%; % Inhibition, Histamine, H1 (Histamine, H1): 17%; % Inhibition, Muscarinic M3 (Muscarinic M3): 16%; % Inhibition, Nicotinic Acetylcholine a1, Bungarotoxin ([4]; human, 10 μM compound, Hit Profile Panel): 0%; % Inhibition, Opiate μ(OP3, MOP) (Opiate μ(OP3, MOP)): 74%; % Inhibition, Seritonin (5-Hydroxytryptamine) 5-HT2B [5]: 53%; % Inhibition, Sigma σ1 (Sigma σ1): −4%; % Inhibition, Transporter, Norepinephrine (NET) [6]: 50%
